Assay results published in patent US7279172B2, “Treatment of autoimmune conditions with copolymer 1 and related copolymers” (priority 1998, dated 2007).
“Also recorded” adds a separate entry of the source.

Experiments:
mice = assay: Toxicity test in mice (i.v. injection, 48 hour observation); assay type: in vivo
Procedure: Three batches of copolymer-1 having an average molecular weight of 7.3 and 8.4 KDa (less than 2.5% copolymer-1 species over 40KDa) and 22KDa (more than 5% copolymer-1 species over 40KDa) were subjected to the toxicity test described below. Five mice were used in each experimental group.
Copolymer-1 is dissolved in distilled water to yield a solution of 2 mg/ml of the active ingredient. Each mouse is injected with 0.5 ml of the test solution into the lateral tail vein. […] Observations were recorded 10 minutes, 24 hours and 48 hours post-injection. If, at the end of 48 hours, all the animals were alive and no adverse signs had been observed, then the batch is designated “non-toxic”. If, however, one or more of the mice had died or had shown adverse signs, then the batch is designated “toxic”.

[1] = tested on: Rat Basophilic Leukemia cells (RBL-2Ho); assay: In vitro Rat Basophilic Leukemia cell degranulation test ([3H]-serotonin release); assay type: cell-based; conditions: 100 μg
Text: Histamine (or serotonin) release from basophile is an in vitro model for immediate hypersensitivity. The Rat Basophilic Leukemia cell line, RBL-2Ho, is uniform and easy to maintain in culture but is a highly sensitive and reproducible system for testing for degranulation. E. L. Basumian, et al., 11 EUR. J. IMMUNOL. 317 (1981). The physiological stimulus for histamine release involves binding of the antigen to membrane-bound IgE molecules, which triggers an intricate biochemical cascade. Degranulation is induced by non-IgE-mediated stimuli, including various peptides and synthetic polymers, e.g. polylysine. R. P. Siraganian, TRENDS IN PHARM[…] 432 (October 1983). The RBL degranulation test is, therefore, used to screen out those batches of COP-1 which evoke substantial degranulation and thus might elicit undesirable local and/or systemic side effects.
Rat Basophilic Leukemia cells (RBL-2Ho), are loaded with [H^3]-serotonin, followed by incubation with 100 μg of the COP-1 to be tested. Batches of COP-1 which induce non-specific degranulation, release [H^3]-serotonin into the medium. The radioactivity in the medium is counted by a scintillation counter and the total radiolabeled serotonin incorporated into the cells is determined in the pelleted cells. Percent degranulation is calculated as the percentage of serotonin released out of the total incorporated.

[2] = tested on: experimental allergic encephalomyelitis (EAE); assay: EAE suppression by injection with incomplete adjuvant; assay type: in vivo, (SJL/J×BALB/c)FI mice
HLA-DR1 [3] = molecular target: T1, HLA-DR1 (Homo sapiens, UniProt P01903+P01911, A100R/D57E/F55L/F60I/F76Y/I96L/L162R/M171V/P40L/Q125E/R42F/V115G/Y59C); assay: Competitive inhibition of biotinylated Copolymer 1 binding to HLA-DR1
HLA-DR2 [4] = molecular target: T2, HLA-DR2 (Homo sapiens, UniProt P01903+P01911); assay: Competitive inhibition of biotinylated Copolymer 1 binding to HLA-DR2; conditions: vs 1.5 μM biotinylated Copolymer 1, pH 5.0, 40 hr 37° C.
HLA-DR4 [5] = molecular target: T3, HLA-DR4 (Homo sapiens, UniProt P01903+P01911, A100K/A169T/F76Y/I96L/K127E/L162R/M171V/N62H/P40V/Q125Y/R42H/S133A/S149N/S66Y/V115G/V209L/W38E); assay: Competitive inhibition of biotinylated Copolymer 1 binding to HLA-DR4
[6] = tested on: T cells specific for the MBP 84-102 antigen; assay: Inhibition of MBP-induced T cell proliferation; assay type: cell-based, mouse, human
WCB AB line = assay: IL-2 secretion from WCB AB line; conditions: for % Inhibition of IL-2 secretion: 2μM p259
[7] = tested on: experimental allergic encephalomyelitis (EAE); assay: EAE suppression by oral administration; conditions: Lewis rats fed 5 mg/kg; mean maximal score for the entire group, 0-5 scale
HLA-DR1 [8] = molecular target: T1, HLA-DR1; assay: Binding of biotinylated polypeptides to purified HLA-DR1
HLA-DR2 [9] = molecular target: T2, HLA-DR2; assay: Binding of biotinylated polypeptides to purified HLA-DR2
HLA-DR4 [10] = molecular target: T3, HLA-DR4; assay: Binding of biotinylated polypeptides to purified HLA-DR4
mouse spleen macrophages = assay: Binding of biotinylated polypeptides to living antigen presenting cells (FACS), mouse; conditions: 50 μg biotinylated polypeptide, 37° C. for 20 hr
[11] = tested on: human EBV transformed B-cell line; assay: Binding of biotinylated polypeptides to living antigen presenting cells (FACS), human; conditions: 50 μg biotinylated polypeptide, 37° C. for 20 hr; DR7,w11 haplotype
[12] = mice, 10 mg/mouse subcutaneously in ICFA, EAE induced 3 weeks later
[13] = vs 1.5 μM biotinylated Copolymer 1, pH 5.0, 40 hr 37° C.

Substance: Copolymer 1 [reference compound]
- batch designation toxic / non-toxic (mice; Copolymer 1 batch of 7.3 KDa average molecular weight): non-toxic
- batch designation toxic / non-toxic (mice; Copolymer 1 batch of 8.4 KDa average molecular weight): non-toxic
- batch designation toxic / non-toxic (mice; Copolymer 1 batch of 22 kDa average molecular weight): toxic
- mice died after 48 hours (mice; Copolymer 1 batch of 22 kDa average molecular weight, 0.5 ml of 2 mg/ml into lateral tail vein, five mice): Three of five
- % Serotonin Release ([1]; Copolymer 1 batch Average M.W. 6,250, <2.5% species over 40 KDa): 12.4%
- % Serotonin Release ([1]; Copolymer 1 batch Average M.W. 7,300, <2.5% species over 40 KDa): 21.0%
- % Serotonin Release ([1]; Copolymer 1 batch Average M.W. 13,000, >5% species over 40 KDa): 66.9%
- % Serotonin Release ([1]; Copolymer 1 batch Average M.W. 14,500, >5% species over 40 KDa): 67.8%
- EAE suppression (in words) ([2]; injection in ICFA prior to induction of EAE): greatest EAE suppression
- Incidence [2, 12]: 2/11
- Suppression % Incidence [2, 12]: 82.0%
- Suppression % MMS [2, 12]: 89.0%
- MMS (Mean Maximal Score) ([2]; mice, 10 mg/mouse subcutaneously in ICFA, EAE induced 3 weeks later, 0-5 scale): 0.45
- inhibition of binding of biotinylated Copolymer 1 to HLA-DR1 (in words) (HLA-DR1 [3]; unlabeled inhibitor): efficiently inhibited
- IC50 (HLA-DR1 [3]; [13]): 8.8 µM
- IC50 (HLA-DR2 [4]): 10.1 µM
- inhibition of binding of biotinylated Copolymer 1 to HLA-DR4 (in words) (HLA-DR4 [5]; unlabeled inhibitor): efficiently inhibited
- IC50 (HLA-DR4 [5]; [13]): 10.8 µM
- inhibition of proliferation of T cells exposed to MBP 84-102 antigen (in words) ([6]; polypeptide added with stimulating MBP antigen): significantly inhibited the proliferation
- stimulation of proliferation of T cells specific for the 84-102 peptide of MBP (in words) ([6]; polypeptide as antigen): did not stimulate proliferation
- % Inhibition of IL-2 secretion (WCB AB line; Cop1 20 μM): 73%
- % Inhibition of IL-2 secretion (WCB AB line; Cop1 60 μM): 88%
- % Inhibition of IL-2 secretion (WCB AB line; Cop1 100 μM): about 91%
- % Inhibition of IL-2 secretion (WCB AB line; Cop1 100 μM, listed as Cop1): 91%
- inhibition of p259-induced T cell secretion of IL-2 (in words) (WCB AB line; Copolymer 1 incubated with the p259 peptide): inhibited in a dose-related fashion
- MMS ± SD [7]: 0.78 ± 0.45
- binding to HLA-DR1, comparison / order of binding capacity (in words) (HLA-DR1 [8]; detergent-soluble HLA-DR1): better than that of GAL, TGA or GTL; also recorded: Copolymer 1>TAL>GTL>TGA>>GAL
- Kd (HLA-DR1 [8]; read-out: Kd DR1, detergent-soluble HLA-DR1, pH 5.0, 40 hr 37° C., from slope of double reciprocal plot): 74 nM
- binding to HLA-DR2, comparison / order of binding capacity (in words) (HLA-DR2 [9]; detergent-soluble HLA-DR2): bound better than the other polypeptides; also recorded: Copolymer 1>GTL>TAL>GAL>TGA
- Kd (HLA-DR2 [9]; read-out: Kd DR2, detergent-soluble HLA-DR2, pH 5.0, 40 hr 37° C., from slope of double reciprocal plot): 82 nM
- binding to HLA-DR4, comparison / order of binding capacity (in words) (HLA-DR4 [10]; detergent-soluble HLA-DR4): better than that of GAL, TGA or GTL; also recorded: TAL>Copolymer 1>>TGA>GTL>GAL
- Kd (HLA-DR4 [10]; read-out: Kd DR4, detergent-soluble HLA-DR4, pH 5.0, 40 hr 37° C., from slope of double reciprocal plot): 15 nM
- % Binding (mouse spleen macrophages): 85%
- MFI (Mean Fluorescence Intensity) (mouse spleen macrophages): 493
- % Binding [11]: 96%
- MFI (Mean Fluorescence Intensity) [11]: 727
